Results on 18 molecules are retold here after patent US6608086B2, “Dihydropyridines and new uses thereof” (Synaptic Pharmaceutical Corporation, priority 1993, dated 2003).

pKi: −log10 of the molar value. Structures can show the parent of a compound that is named as a salt. Where two headings read alike, the source gives them in different places.

One experiment concerns the target T1, L-type calcium channel (Rattus norvegicus, UniProt P22002).
T1 construct: membrane fragments of rat cardiac muscle; from tissue; host or cells: rat cardiac muscle membranes
Kind of experiment: Competition binding of [3H]nitrendipine to membrane fragments of rat cardiac muscle. Particulars: for Ki: [3H]nitrendipine, read-out: pKi Ca (converted); for pKi: pKi Ca.

In the next experiment the target is T2, α2C receptor (Homo sapiens, UniProt P18825).
T2 construct: host or cells: LM(tk-) cells, line L-α2C
T2 sequence (P18825 1-462): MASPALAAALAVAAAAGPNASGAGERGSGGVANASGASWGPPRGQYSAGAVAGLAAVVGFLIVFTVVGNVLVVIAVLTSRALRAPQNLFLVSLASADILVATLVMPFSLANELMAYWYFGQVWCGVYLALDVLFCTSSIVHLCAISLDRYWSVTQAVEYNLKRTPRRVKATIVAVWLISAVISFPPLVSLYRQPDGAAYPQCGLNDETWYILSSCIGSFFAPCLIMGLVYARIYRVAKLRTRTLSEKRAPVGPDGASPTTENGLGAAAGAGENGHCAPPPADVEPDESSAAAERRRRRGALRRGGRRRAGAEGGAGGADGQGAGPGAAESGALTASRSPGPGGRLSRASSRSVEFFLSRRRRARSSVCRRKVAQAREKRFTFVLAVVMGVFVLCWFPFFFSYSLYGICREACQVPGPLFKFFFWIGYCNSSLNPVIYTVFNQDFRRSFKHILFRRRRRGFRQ
Description: Competition binding, [3H]rauwolscine, human α2C receptor. The following applies: for Ki: read-out: pKi alpha-2 2c (converted); for pKi: pKi alpha-2 2c. Summed up: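 Using 25 mM glycylglycine buffer at pH 7.6 (room temperature), membranes from LM(tk−) cells carrying α2A, α2B or α2C were competed against 0.5 nM [3H]rauwolscine to equilibrium. Separation was by GF/B filtration; phentolamine (10 μM) set nonspecific binding.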

The target in experiment [1] is T3, α1A Human Adrenergic Receptor (Homo sapiens, UniProt P25100).
T3 construct: The entire coding region of α1A (1719 bp); expressed in transfected cells
T3 sequence (P25100 1-572): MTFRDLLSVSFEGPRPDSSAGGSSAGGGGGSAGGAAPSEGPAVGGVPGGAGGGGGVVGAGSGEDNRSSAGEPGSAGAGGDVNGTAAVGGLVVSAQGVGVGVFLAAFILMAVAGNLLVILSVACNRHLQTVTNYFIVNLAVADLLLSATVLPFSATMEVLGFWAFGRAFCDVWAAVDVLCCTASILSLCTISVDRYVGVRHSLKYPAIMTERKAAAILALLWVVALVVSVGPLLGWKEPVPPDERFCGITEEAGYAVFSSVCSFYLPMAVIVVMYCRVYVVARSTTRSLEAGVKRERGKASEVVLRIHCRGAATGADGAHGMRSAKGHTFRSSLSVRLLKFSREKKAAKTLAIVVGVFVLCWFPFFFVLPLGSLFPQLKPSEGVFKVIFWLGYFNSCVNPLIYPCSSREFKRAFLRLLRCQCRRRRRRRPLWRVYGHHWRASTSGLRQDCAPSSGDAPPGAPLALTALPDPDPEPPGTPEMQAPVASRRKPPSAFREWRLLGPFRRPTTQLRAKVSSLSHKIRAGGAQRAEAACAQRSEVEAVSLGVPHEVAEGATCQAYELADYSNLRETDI
Description: Radioligand binding, [3H]prazosin, cloned human α1A adrenergic receptor. The following applies: for pKi: pKi alpha-1 1a. The essentials: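 [3H]prazosin 0.5 nM, transfected LM(tk−) membranes, 37° C, 20 min. Buffer 50 mM Tris-HCl/1 mM MgCl2/0.1% ascorbate, pH 7.5. NSB: 10 μM phentolamine. Filtration harvest.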

The mark [2] stands for this setting: rat cardiac muscle membrane fragments, L-type calcium channel.
Where [3] appears, read: [3H]rauwolscine, human α2C receptor, LM(tk−) cells.
[4] abbreviates: [3H]prazosin, cloned human α1A receptor, LM(tk−) cell membranes.
Where [5] appears, read: rat cardiac muscle membranes, SEM and n in lines below.
The mark [6] stands for this setting: [3H]rauwolscine, LM(tk-) cell line L-α2C, SEM and n in lines below.
The mark [7] stands for this setting: [3H]prazosin, cloned human receptor in LM(tk-) cell membranes, SEM and n in lines below.

T1 sequence (P22002 whole entry, other chains not shown, the tested form may be a part): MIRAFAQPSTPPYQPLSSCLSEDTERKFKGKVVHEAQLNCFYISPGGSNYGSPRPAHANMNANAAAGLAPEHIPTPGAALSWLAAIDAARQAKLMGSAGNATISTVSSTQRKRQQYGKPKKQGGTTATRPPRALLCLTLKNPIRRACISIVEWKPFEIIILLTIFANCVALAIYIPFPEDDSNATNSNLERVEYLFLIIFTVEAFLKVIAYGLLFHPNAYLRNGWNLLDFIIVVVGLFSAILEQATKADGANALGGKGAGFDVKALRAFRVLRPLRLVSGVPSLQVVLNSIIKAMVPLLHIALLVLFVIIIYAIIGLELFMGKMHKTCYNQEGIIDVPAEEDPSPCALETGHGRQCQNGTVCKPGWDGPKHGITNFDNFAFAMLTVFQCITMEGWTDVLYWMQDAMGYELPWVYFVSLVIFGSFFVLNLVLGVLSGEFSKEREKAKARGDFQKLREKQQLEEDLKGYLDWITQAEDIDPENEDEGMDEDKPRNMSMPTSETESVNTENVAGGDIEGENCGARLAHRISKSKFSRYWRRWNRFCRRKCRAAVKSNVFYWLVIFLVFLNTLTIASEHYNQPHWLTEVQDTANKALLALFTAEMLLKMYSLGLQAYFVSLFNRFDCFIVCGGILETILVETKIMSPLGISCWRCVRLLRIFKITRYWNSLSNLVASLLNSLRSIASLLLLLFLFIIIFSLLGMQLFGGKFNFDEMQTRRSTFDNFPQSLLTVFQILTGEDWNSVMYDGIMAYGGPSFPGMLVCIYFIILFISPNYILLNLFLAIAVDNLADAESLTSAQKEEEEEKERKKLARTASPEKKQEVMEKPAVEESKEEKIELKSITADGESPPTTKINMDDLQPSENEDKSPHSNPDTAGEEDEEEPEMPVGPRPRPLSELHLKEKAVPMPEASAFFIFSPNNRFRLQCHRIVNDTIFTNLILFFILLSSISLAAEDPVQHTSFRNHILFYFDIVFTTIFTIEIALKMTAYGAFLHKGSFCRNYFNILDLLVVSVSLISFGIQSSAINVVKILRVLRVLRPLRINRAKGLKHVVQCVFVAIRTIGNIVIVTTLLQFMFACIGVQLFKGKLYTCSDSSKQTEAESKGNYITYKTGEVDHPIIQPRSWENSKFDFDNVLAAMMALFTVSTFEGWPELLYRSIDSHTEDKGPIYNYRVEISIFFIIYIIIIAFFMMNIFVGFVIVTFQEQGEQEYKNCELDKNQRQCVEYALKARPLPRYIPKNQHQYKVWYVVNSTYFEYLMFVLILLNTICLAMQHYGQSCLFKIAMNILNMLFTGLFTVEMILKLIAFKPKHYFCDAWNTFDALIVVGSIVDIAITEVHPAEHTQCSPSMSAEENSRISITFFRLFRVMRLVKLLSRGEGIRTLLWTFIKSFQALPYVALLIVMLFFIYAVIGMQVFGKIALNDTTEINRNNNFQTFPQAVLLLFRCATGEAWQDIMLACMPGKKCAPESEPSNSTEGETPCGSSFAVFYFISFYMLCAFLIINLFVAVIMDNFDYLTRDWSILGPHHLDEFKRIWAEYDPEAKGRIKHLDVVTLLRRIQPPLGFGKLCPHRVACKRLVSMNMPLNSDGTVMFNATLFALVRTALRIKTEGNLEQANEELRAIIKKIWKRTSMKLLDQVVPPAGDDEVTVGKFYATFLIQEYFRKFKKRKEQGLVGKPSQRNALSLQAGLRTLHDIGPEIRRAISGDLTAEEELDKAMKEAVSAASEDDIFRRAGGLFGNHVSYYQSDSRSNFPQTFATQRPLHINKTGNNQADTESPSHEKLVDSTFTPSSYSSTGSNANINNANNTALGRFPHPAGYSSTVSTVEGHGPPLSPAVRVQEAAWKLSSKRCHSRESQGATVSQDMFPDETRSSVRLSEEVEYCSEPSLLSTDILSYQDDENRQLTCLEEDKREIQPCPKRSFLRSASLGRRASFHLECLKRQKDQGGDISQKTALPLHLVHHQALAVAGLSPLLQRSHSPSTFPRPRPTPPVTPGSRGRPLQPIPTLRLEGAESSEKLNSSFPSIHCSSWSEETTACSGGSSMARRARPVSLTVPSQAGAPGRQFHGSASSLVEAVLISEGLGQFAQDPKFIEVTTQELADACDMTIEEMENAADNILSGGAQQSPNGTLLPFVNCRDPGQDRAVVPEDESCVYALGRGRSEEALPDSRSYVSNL
T1 sequence (P54290 25-944 partner limits assumed, other chains not shown): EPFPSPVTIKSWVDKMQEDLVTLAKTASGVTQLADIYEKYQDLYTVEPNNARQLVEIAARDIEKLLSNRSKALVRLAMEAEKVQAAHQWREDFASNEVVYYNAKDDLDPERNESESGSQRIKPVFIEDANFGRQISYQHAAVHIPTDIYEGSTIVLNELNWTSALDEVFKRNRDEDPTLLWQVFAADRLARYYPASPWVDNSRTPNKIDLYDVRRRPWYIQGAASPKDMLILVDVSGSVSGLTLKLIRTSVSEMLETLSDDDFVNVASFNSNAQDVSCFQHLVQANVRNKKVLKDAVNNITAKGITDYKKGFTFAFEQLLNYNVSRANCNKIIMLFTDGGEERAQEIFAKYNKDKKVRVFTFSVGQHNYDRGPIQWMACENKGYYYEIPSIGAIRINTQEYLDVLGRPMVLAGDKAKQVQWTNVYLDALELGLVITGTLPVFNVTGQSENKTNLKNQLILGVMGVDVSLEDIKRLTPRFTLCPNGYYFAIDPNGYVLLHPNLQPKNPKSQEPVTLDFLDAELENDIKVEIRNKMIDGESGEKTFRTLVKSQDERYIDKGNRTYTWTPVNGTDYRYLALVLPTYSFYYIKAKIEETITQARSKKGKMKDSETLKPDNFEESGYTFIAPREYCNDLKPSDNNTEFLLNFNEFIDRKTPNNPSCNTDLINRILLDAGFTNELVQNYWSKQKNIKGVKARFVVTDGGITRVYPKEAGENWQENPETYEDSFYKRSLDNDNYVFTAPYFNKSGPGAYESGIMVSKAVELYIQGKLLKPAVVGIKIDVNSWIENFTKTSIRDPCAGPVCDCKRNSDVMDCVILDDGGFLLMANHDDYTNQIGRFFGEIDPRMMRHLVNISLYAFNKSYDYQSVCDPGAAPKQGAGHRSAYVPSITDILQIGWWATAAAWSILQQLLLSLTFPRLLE
T1 sequence (P54290 945-1091 partner limits assumed, other chains not shown): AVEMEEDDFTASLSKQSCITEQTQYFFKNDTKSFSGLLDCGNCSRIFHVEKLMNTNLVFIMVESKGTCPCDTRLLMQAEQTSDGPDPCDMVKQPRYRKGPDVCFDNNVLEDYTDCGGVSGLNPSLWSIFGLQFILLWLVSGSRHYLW

In the case of `CC1=C(C(=O)NCCCN2CCC(c3ccccc3)(c3ccccc3)CC2)C(c2ccc([N+](=O)[O-])cc2)C(C(=O)NC(C)C)=C(C)N1` (stereo not shown) [Example 156, 1,4-Dihydro-3-(N-isopropyl) carboxamido-2,6-dimethyl-4-(4-nitrophenyl)-5-{N-[3-(^414-diphenylpiperidin-1-yl)propyl]}carboxamidopyridine], the Ki on L-type calcium channel (setting [2]) was 75.9 µM; on α2C receptor (setting [3]) it was 0.219 µM. In addition, in experiment [1] (setting [4]), the pKi – broadly, the Ki on a negative log10 scale, so that one unit is a factor of ten – was 5.88.
Consider `CCNC(=O)C1=C(COCCN=[N+]=[N-])NC(CC)=C(C(=O)NCCCN2CCC(c3ccccc3)(c3ccccc3)CC2)C1c1ccc([N+](=O)[O-])cc1` (stereo not shown) [Example 147, 2-((2-Azidoethyl)oxy)methyl-6-ethyl-3-(N-ethyl)carboxamido-1,4-dihydro-4-(4-nitro)phenyl-5-(N-(3-(4,4-diphenylpiperidin-1-yl-)propyl))carboxamidopyridine], for which the values for the pKi (on α2C receptor (setting [3]); in experiment [1] (setting [4])) were 6.60 and 6.43, respectively.
As for `CCC1=C(C(=O)NCCCN2CCC(c3ccccc3)(c3ccccc3)CC2)C(c2ccc([N+](=O)[O-])cc2)C(C(=O)OCc2ccccc2)=C(C)N1` (stereo not shown) [Example 4, 5-Benzyloxycarbonyl-2-ethyl-1,4-dihydro-6-methyl-4-(4-nitrophenyl)-3-(N-(3-(4,4-diphenylpiperidin-1-yl)propyl)carboxamido) pyridine, Hydrochloride Salt, Hydrate], the values for the Ki on L-type calcium channel (setting [5]) and at α2C receptor (setting [6]) were 0.977 µM and 0.501 µM, respectively. This molecule also showed a pKi in experiment [1] (setting [7]) of 6.71.
On to `COC(=O)C1=C(C)NC(C)=C(C(=O)NCCCN2CCC(c3ccccc3)(c3ccccc3)CC2)C1c1ccoc1` (stereo not shown) [Example 23, 4-(3-Furyl)-1,4-dihydro-3-methoxycarbonyl-2,6-dimethyl-5-(N-(3-(4,4-diphenylpiperidin-1-yl)propyl)carboxamide)pyridine], for which the values for the Ki on L-type calcium channel (setting [5]) and on α2C receptor (setting [6]) were 0.288 µM and 0.468 µM, respectively. For the same molecule, the pKi in experiment [1] (setting [7]) is 6.19.
`CCC1=C(C(=O)OCCC#N)C(c2ccc([N+](=O)[O-])cc2)C(C(=O)NCCCN2CCC(c3ccccc3)(c3ccccc3)CC2)=C(COC)N1` (stereo not shown) [Example 135]: the Ki is 0.339 µM at α2C receptor (setting [3]) and 0.501 µM in experiment [1] ([3H]prazosin, cloned human α1A receptor, LM(tk−) cell membranes, read-out: pKi alpha-1 1a (converted)).
`CCC1=C(C(=O)NCCCN2CCC(c3ccccc3)(c3ccccc3)CC2)C(c2cccc(OC)c2)C(C(N)=O)=C(C)N1` (stereo not shown) [Example 113, 5-Carboxamide-2-ethyl-1,4-dihydro-4-(3-methoxyphenyl)-6-methyl-3-(N-(3-(4,4-diphenylpiperidin-1-yl)propyl)carboxamido)-pyridine]: the Ki at L-type calcium channel (setting [2]) is 1000 µM. The results for the pKi (at α2C receptor (setting [3]); in experiment [1] (setting [4])) were 6.50 and 6.16, respectively.
In the case of `COC(=O)C1=C(C)NC(c2ccccc2)=C(C(=O)NCCCN2CCC(c3ccccc3)(c3ccccc3)CC2)C1c1ccc([N+](=O)[O-])cc1` (stereo not shown) [Example 78, 1,4-Dihydro-5-methoxycarbonyl-6-methyl-4-(4-nitro)phenyl-2-phenyl-3-(N-(3-(4,4-diphenylpiperidin-1-yl)propyl))carboxamidopyridine hydrochloride hydrate], the pKi was 5.50 at L-type calcium channel, 6.82 at α2C receptor and 6.75 in experiment [1].
On to `COC(=O)C1=C(C)NC(C)=C(C(=O)N(C)CCCN2CCC(c3ccccc3)(c3ccccc3)CC2)C1c1ccc([N+](=O)[O-])cc1` (stereo not shown) [Example 46, hydrochloride hemihydrate], for which the pKi is 5.13 at L-type calcium channel, 6.61 on α2C receptor and 6.30 in experiment [1].
`CCC1=C(C(=O)NCCCN2CCC(c3ccccc3)(c3ccccc3)CC2)C(c2cccc(OC)c2)C(C(=O)NCCCN2CCC(c3ccccc3)(c3ccccc3)CC2)=C(CC)N1` [Example 112, 2,6-Diethyl-1,4-dihydro-4-(3-methoxyphenyl)-3,5-bis(N-(3-(4,4-diphenylpiperidin-1-yl)propyl)carboxamido)-pyridine]: the Ki at L-type calcium channel (setting [2]) was 0.0575 µM. The pKi on α2C receptor (setting [3]) is 6.57; in experiment [1] (setting [4]), 7.52.
For `CCC1=C(C(=O)OCCC#N)C(c2ccc([N+](=O)[O-])cc2)C(C(=O)NCCCN2CCC(c3ccccc3)(c3ccccc3)CC2)=C(COCCN=[N+]=[N-])N1` (stereo not shown) [Example 141], the figures for the pKi (on α2C receptor (setting [3]); in experiment [1] (setting [4])) were 6.45 and 7.30, respectively.
For `CCC1=C(C(=O)NC)C(c2ccc([N+](=O)[O-])cc2)C(C(=O)NCCCN2CCC(c3ccccc3)(c3ccccc3)CC2)=C(CC)N1` (stereo not shown) [Example 128, 2,6-Diethyl-1,4-dihydro-5-(N-methyl)carboxamido-4-(4-nitrophenyl)-3-{N-[3-(4,4-diphenylpiperidin-1-yl)propyl]}carboxamidopyridine], at α2C receptor (setting [3]), the Ki is 0.219 µM. This molecule also gave a pKi in experiment [1] (setting [4]) of 6.01.
For `CCC1=C(C(=O)NCCCN2CCC(c3ccccc3)(c3ccccc3)CC2)C(c2ccc([N+](=O)[O-])cc2)C(C(=O)NC)=C(COCCN=[N+]=[N-])N1` (stereo not shown) [Example 151, 2-((2-Azidoethyl)oxy)methyl-6-ethyl-1,4-dihydro-3-(N-methyl)carboxamido-4-(4-nitro)phenyl-5-(N-(3-(4,4-diphenylpiperidin-1-yl)propyl))carboxamidopyridine], the values for the pKi (at α2C receptor (setting [3]); in experiment [1] (setting [4])) were 6.68 and 6.20, respectively.
For `COC(=O)C1=C(C)NC(C)=C(C(=O)NCCCN2CCC(c3ccccc3)(c3ccccc3)CC2)C1c1cccnc1` (stereo not shown) [Example 14, 1,4-Dihydro-3-methoxycarbonyl-2.6-dimethyl-5-(N-(3-(4,4-diphenylpiperidin-1-yl)propyl)carboxamido)-4-(3-pyridyl)pyridine], the Ki at α2C receptor (setting [6]) was 1.1 µM. The molecule also had a pKi in experiment [1] (setting [7]) of 5.39.
Take `CCC1=C(C(N)=O)C(c2ccc([N+](=O)[O-])cc2)C(C(=O)NCCCN2CCC(c3ccccc3)(c3ccccc3)CC2)=C(CC)N1` (stereo not shown) [Example 42, 5-carboxamido-2,6-diethyl-1,4-dihydro-4-(4-nitrophenyl)-3-{N-[3-(4,4-diphenylpiperidin-1-yl)propyl]}carboxamidopyridine]: the pKi is 6.77 on α2C receptor (setting [6]) and 6.35 in experiment [1] (setting [7]).
Consider `CCC1=C(C(N)=O)C(c2ccc([N+](=O)[O-])cc2)C(C(=O)NCCCN2CCC(c3ccccc3)(c3ccccc3)CC2)=C(C)N1` (stereo not shown) [Example 41, 3-Carboxamido-2-ethyl-1,4-dihydro-6-methyl-4-(4-nitrophenyl)-3-{N-[3-(4,4-diphenylpiperidin-1-yl)propyl]}carboxamidopyridine], for which the Ki on α2C receptor (setting [6]) was 0.437 µM. In experiment [1] (setting [7]), the pKi is 6.30.
On to `CCC1=C(C(=O)NCCCN2CCC(c3ccccc3)(c3ccccc3)CC2)C(c2ccc([N+](=O)[O-])cc2)C(C(=O)OC(C)(C)C)=C(COCCN=[N+]=[N-])N1` (stereo not shown) [Example 139], for which the pKi was 6.51 on α2C receptor (setting [3]) and 6.32 in experiment [1] (setting [4]).
Taken in the same sequence, the figures for `CCC1=C(C(N)=O)C(c2ccc(S(C)(=O)=O)cc2)C(C(=O)NCCCN2CCC(c3ccccc3)(c3ccccc3)CC2)=C(CC)N1` (stereo not shown) [Example 116, 5-Carboxamido-2,6-diethyl-1,4-dihydro-4-(4-methanesulfonylphenyl)-3-(N-(3-(4,4-diphenylpiperidin-1-yl)propyl)carboxamido)-pyridine] were 6.13 and 6.73.
Turning to `CCC1=C(C(=O)NCCCN2CCC(c3ccccc3)(c3ccccc3)CC2)C(c2ccc([N+](=O)[O-])cc2)C(C(N)=O)=C(COCCN=[N+]=[N-])N1` (stereo not shown) [Example 149, 2-((2-Azidoethyl)oxy)methyl-3-carboxamido-6-ethyl-1,4-dihydro-4-(4-nitro) phenyl-5-(N-(3-(4,4-diphenylpiperidin-1-yl)propyl))carboxamidopyridine], the figures for the pKi (on α2C receptor (setting [3]); in experiment [1] (setting [4])) were 6.59 and 6.49, respectively.
